Results on one compound are retold here after patent US20090186915A1, “Compositions and methods for treatment of glioblastoma, gliosarcoma, NSCLC, and head and neck cancer” (Unibioscreen S. A., priority 2006, published 2009).

One experiment relates to GM-CFC. Put plainly: HALO hematotoxicity assay, human GM-CFC. The experiment is classed as cell-based. The settings on record: 7 days culture, iATP. As to the method: (§1) Investigation of the hematotoxic potential of UNBS5162 was undertaken by HemoGenix (Colorado Springs, Colo.). The effects of UNBS5162 on stem and progenitor cell populations from murine and human bone marrow were assessed using HALO (Hematopoietic/Hematotoxicity Assay through Luminescence Output) technology. Stem and hematopoietic progenitor cell populations were isolated from mouse and human bone marrow samples, plated at a concentration of 1.0×10^4 cells/well and cultured for 5 and 7 days, respectively, in the presence of growth factors and increasing concentrations of UNBS5162 ranging from 0.5 nM to 50 μM. The proliferative or growth potential of cell populations was determined from intracellular ATP (iATP) concentrations and a luciferin/luciferase bioluminescence signal detection system. All samples were assayed in eight replicates. The results are presented as estimated inhibitory concentration (IC) values.

In experiment [1] the test system is PC-3. Put plainly: Quantitative videomicroscopy, PC-3. The experiment is classed as cell-based, human. As to the method: Use was made of computer-assisted phase-contrast microscopy (quantitative videomicroscopy) in the attempt to elucidate an overall picture of UNBS5162's mechanism of action. […] In addition, 10 μM UNBS5162 caused a marked enlargement in PC-3 cells by the end of the 6-day treatment period compared with the start of the experiment.

The subject of experiment [2] is PC-3. As to the kind of experiment: Senescence-associated β-galactosidase staining, PC-3. Type of experiment: cell-based, human. Conditions: 10 μM, 72 hours. As to the method:
After the indicated treatments, cells were washed in PBS, fixed for 3 to 5 minutes (at room temperature) in 2% formaldehyde/0.2% glutaraldehyde, washed and incubated at 37° C. (in the absence of CO2) with fresh senescence-associated β-Gal (SA-β-Gal) staining solution: 1 mg/ml of 5-bromo-4-chloro-3-indolyl […] (X-Gal; Sigma). Staining was evident within 2 to 4 hours and maximal after 12 to 16 hours. To detect lysosomal β-Gal, the citric acid/sodium phosphate used was pH 4.0. As described in the study of Dimri et al. [Proc Natl Acad Sci USA. 1995; 92:9363-9367.], after fixing and staining with X-Gal, the number of cells positive for the SA-β-Gal activity (intense blue staining) was then counted independently by two different individuals (on 400 cells/plate). Representative photographs (original magnifications, ×20) of stained cells from different experimental treatments were taken. As a positive control for SA-β-Gal expression, Adriamycin-treated cells were used.
Human PC-3 and DU-145 prostate cancer cells cultured in 0 or 10 μM UNBS5162 or 20 nM Adriamycin for 72 hours were evaluated by SA-β-Gal staining. The data clearly indicate that 10 μM [but not 1 μM or 5×1 μM] […] TMZ, as an inducer of autophagy but not of senescence, was used as a negative control.

In the next experiment the test system is BFU-E. As to the kind of experiment: HALO hematotoxicity assay, mouse BFU-E. The experiment is classed as cell-based. The settings on record: 5 days culture, iATP. As to the method: as §1
In experiment [3] the test system is orthotopic Hs683 xenograft. As to the kind of experiment: Orthotopic Hs683 xenograft nude mice model, survival. The experiment is classed as in vivo. The settings on record: Temodal p.o. 40 mg/kg three times a week for three weeks followed by UNBS5162 i.v. 10 mg/kg once a week for three weeks. As to the method: In order to evaluate UNBS5162-mediated in vivo anti-tumor effect in glioma models, an orthotopis Hs683 model was used that was previously evidenced as expressing pro-angiogenic chemokines at the most high level. […] In line with this, an experiment combining Temodal to UNBS5162 was performed.
Thus, combining pro-autophagic therapy with an inhibitor of pro-angiogenic chemokines might represent a new manner to treat glioblastoma, at least some types that express high levels of pro-angiogenic chemokines.

Experiment [4] deals with DU-145. Put plainly: Apoptosis by Annexin V flow cytometry, DU-145. Type of experiment: cell-based, human. As to the method: We used flow cytometry (according to the protocol found in Mijatovic et al. Neoplasia 2006) to determine the percentages of PC-3 and DU-145 positive cells for both Annexin V and propidium iodide and we observed that a maximum of 10% only of PC-3 or DU-145 cells underwent apoptotic processes following a treatment with 10 μM of the compound produced according to example 2 or example 7.
The determination of the percentage of cells undergoing apoptosis was performed using an Annexin V-FITC Apoptosis Detection Kit (Sigma) following the manufacturer's instructions. Each sample was evaluated in triplicate.

The next experiment relates to MCF-7. As to the kind of experiment: MTT colorimetric assay, MCF-7 cells. Type of experiment: cell-based. Conditions: Homo sapiens, MCF7, 72 h, 3 days of culturing, mean of six determinations, read-out: IC50 (μM) In Vitro Growth Inhibition. On the procedure:
The overall growth of human cancer cell lines was determined by means of the calorimetric MTT (3-[4,5-dimethylthiazol-2-yl]-diphenyl tetrazolium bromide; Sigma) assay, as detailed previously.

The next experiment deals with LC3-II. As to the kind of experiment: LC3-II immunoblot, DU-145. Conditions: 10 μM. Type of experiment: cell-based, human.
For experiment [5], the system named is DU-145. Put plainly: Senescence-associated β-galactosidase staining, DU-145. The experiment is classed as cell-based, human. The settings on record: 10 μM, 72 hours. An excerpt:
Features typical of senescence have been induced by the compound of example 2 in human DU-145 prostate cancer cells. A senescent cell is known to typically show morphological changes, such as a flattened cytoplasm and increased granularity. The induction of senescence-associated β-galactosidase activity is a specific event occurring in cells undergoing senescence, a feature that was observed once more in the current study (according to the protocol found in Dimri et al., A biomarker that identifies senescent human cells in culture and in aging skin in vivo, Proc Natl Acad Sci USA. (1995) 92(20):9363-7), as evidenced in FIG. 4. Moderate doses (nM range) of doxorubicin (ADR) are known to induce senescence in wild-type human cancer cells. We therefore used doxorubicin as a positive control in our experiment.
After the indicated treatments, cells were washed in PBS, fixed for 3 to 5 minutes (at room temperature) in 2% formaldehyde/0.2% glutaraldehyde, washed and incubated at 37° C. […] 1995; 92:9363-9367.], after fixing and staining with X-Gal, the number of cells positive for the SA-β-Gal activity (intense blue staining) was then counted independently by two different individuals (on 400 cells/plate). […]
Human PC-3 and DU-145 prostate cancer cells cultured in 0 or 10 μM UNBS5162 or 20 nM Adriamycin for 72 hours were evaluated by SA-β-Gal staining. […]

In experiment [6] the test system is DU-145. As to the kind of experiment: Lysosomal membrane permeabilization (LMP), DU-145. Type of experiment: cell-based, human. Conditions: 72 hours, 10 μM. An excerpt: It is well known that lysosomes control cell death at several levels. In response to endogenous or exogenous stress (including chemotherapy), lysosomal membrane permeabilization (LMP) can occur, leading to the release of catabolic hydrolases that can mediate caspase-dependent apoptosis, caspase-independent apoptosis-like cell death or even necrosis following high levels of LMP.

Consider `CN(C)CCN1C(=O)c2cccc3cc(NC(N)=O)cc(c23)C1=O` [UNBS5162, N-{2-[2-(dimethylamino)ethyl]-1,3-dioxo-2,3-dihydro-1H-benzo[de]isoquinolin-5-yl}urea], for which the IC50 with GM-CFC (168 h) came out at 3.74 µM; with BFU-E (120 h) it was 5.53 µM; in the experiment with MCF-7, 46.5 µM. For the same compound, the IC90 was 19.9 µM in the experiment with GM-CFC (168 h) and 9.11 µM in the experiment with BFU-E (120 h). In addition, the IC75 in the experiment on GM-CFC turned out to be 8.12 µM; in the experiment on BFU-E, 7.03 µM. In addition, the “cell dynamics (videomicroscopy)” value with PC-3 [1] (1 μM) is “induced no detectable changes”. The “cell population development (videomicroscopy)” value in the experiment on PC-3 [1] (10 μM, six days of observation) is given as “prevented PC-3 cell population development”. Moreover, the SA-β-Gal expression result in the experiment with PC-3 [2] was “Limited SA-β-Gal expression”. Further, the “survival period of tumor bearing mice” value in experiment [3] was “significantly prolonged the survival period of tumor bearing mice”. Besides, the “cells undergoing apoptotic processes (Annexin V and propidium iodide positive)” value in the experiment on DU-145 [4] (10 μM) is no more than 10%. Also, in the experiment with DU-145 [4] (flow cytometry), the “induction of real (early) apoptosis” value is given as “does not induce real (early) apoptosis”. Also, in the experiment with DU-145 [4] (flow cytometry), the “late apoptotic and necrotic events” value was “induces late apoptotic and necrotic events”. The “LC3-II protein (marker of autophagy)” value in the experiment with LC3-II is listed as “induced the up-regulation of LC3-II protein”. For the same compound, the “senescence-associated β-galactosidase expression” value with DU-145 [5] was “induced marked expression of SA-β-Gal”; in the experiment with DU-145 [5] (listed as example 2), “induced a similar percentage of senescence-associated β-galactosidase positive staining as 20 nM doxorubicin”. The “lysosomal membrane permeabilization (LMP)” value in the experiment with DU-145 [6] was “a marked drug-induced LMP process appeared”.
